These molecules were tested against CB1 (CNR1) (Homo sapiens, UniProt P21554) (assay: cAMP CNR1 Hunter cell line antagonist assay (CB1 assay)). Conditions: antagonist mode, cAMP CNR1 Hunter cells, EC80 agonist; read-out: CB1 assay, Efficacy (IC50).
Type: cell-based
In short: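 Antagonist mode in CNR1 Hunter cells: compound preincubated 30 min at 37 °C, then EC80 agonist for 30 min at 37 °C. cAMP measured by enzyme-fragment complementation chemiluminescence after lysis (1 h) and detection (3 h, room temperature); IC50 fitted from the dose response.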

Chain of CB1 (CNR1) (P21554 whole entry): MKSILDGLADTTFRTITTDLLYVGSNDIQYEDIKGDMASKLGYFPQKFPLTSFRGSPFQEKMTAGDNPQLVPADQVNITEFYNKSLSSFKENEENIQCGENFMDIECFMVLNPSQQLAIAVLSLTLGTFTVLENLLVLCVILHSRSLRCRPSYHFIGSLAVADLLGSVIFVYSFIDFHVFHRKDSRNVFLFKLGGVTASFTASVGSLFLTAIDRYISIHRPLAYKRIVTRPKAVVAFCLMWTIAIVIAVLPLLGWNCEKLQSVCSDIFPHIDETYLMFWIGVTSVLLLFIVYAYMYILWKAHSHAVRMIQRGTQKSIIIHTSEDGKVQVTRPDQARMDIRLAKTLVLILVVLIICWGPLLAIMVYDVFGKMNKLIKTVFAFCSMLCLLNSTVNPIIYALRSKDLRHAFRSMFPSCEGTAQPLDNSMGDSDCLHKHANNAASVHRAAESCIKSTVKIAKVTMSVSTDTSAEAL

Row | IC50 [µM] | Compound
1 | 1 to 25 | CC1Oc2cc(S(=O)(=O)Nc3ccc(Cl)cc3)c(Cl)cc2NC1=O (stereo not shown) [BC19696]
2 | ≥ 25 | CC1Oc2c(cc(Cl)cc2S(=O)(=O)Nc2ccc(Cl)cc2)NC1=O (stereo not shown) [BC19697]
3 | ≥ 25 | CC1Oc2cc(S(=O)(=O)Nc3ccc(F)c(F)c3)c(Cl)cc2NC1=O (stereo not shown) [BC19698]
4 | 1 to 25 | CC1Oc2c(cc(Cl)cc2S(=O)(=O)Nc2ccc(F)c(F)c2)NC1=O (stereo not shown) [BC19699]
5 | 1 to 25 | Cc1ccc(NS(=O)(=O)c2cc3c(cc2Cl)NC(=O)C(C)O3)cc1F (stereo not shown) [BC19700]
6 | 1 to 25 | Cc1ccc(NS(=O)(=O)c2cc(Cl)cc3c2OC(C)C(=O)N3)cc1F (stereo not shown) [BC19701]
7 | ≥ 25 | CCc1ccc(NS(=O)(=O)c2cc3c(cc2Cl)NC(=O)C(C)O3)cc1 (stereo not shown) [BC19702]
8 | 1 to 25 | CCc1ccc(NS(=O)(=O)c2cc(Cl)cc3c2OC(C)C(=O)N3)cc1 (stereo not shown) [BC19703]
9 | ≥ 25 | CC1Oc2cc(S(=O)(=O)Nc3ccc(C(C)C)cc3)c(Cl)cc2NC1=O (stereo not shown) [BC19704]
10 | 1 to 25 | CC1Oc2c(cc(Cl)cc2S(=O)(=O)Nc2ccc(C(C)C)cc2)NC1=O (stereo not shown) [BC19705]
11 | ≥ 25 | COc1ccc(NS(=O)(=O)c2cc3c(cc2Cl)NC(=O)C(C)O3)cc1 (stereo not shown) [BC19706]
12 | ≥ 25 | COc1ccc(NS(=O)(=O)c2cc(Cl)cc3c2OC(C)C(=O)N3)cc1 (stereo not shown) [BC19707]
13 | ≥ 25 | Cc1ccc(NS(=O)(=O)c2cc3c(cc2Cl)NC(=O)C(C)O3)cc1Cl (stereo not shown) [BC19708]
14 | 1 to 25 | CC1Oc2cc(S(=O)(=O)Nc3ccc(F)cc3F)c(Cl)cc2NC1=O (stereo not shown) [BC19709]
15 | ≥ 25 | CC1Oc2c(cc(Cl)cc2S(=O)(=O)Nc2ccc(F)cc2F)NC1=O (stereo not shown) [BC19710]
16 | ≥ 25 | CCc1cccc(NS(=O)(=O)c2cc3c(cc2Cl)NC(=O)C(C)O3)c1 (stereo not shown) [BC19711]
17 | ≥ 25 | CCc1cccc(NS(=O)(=O)c2cc(Cl)cc3c2OC(C)C(=O)N3)c1 (stereo not shown) [BC19712]
18 | 1 to 25 | CC1Oc2cc(S(=O)(=O)Nc3cccc(F)c3)c(Cl)cc2NC1=O (stereo not shown) [BC19713]
19 | ≥ 25 | CC1Oc2c(cc(Cl)cc2S(=O)(=O)Nc2cccc(F)c2)NC1=O (stereo not shown) [BC19714]

Row | IC50 [µM] | Compound
20 | < 1 | CC1Oc2cc(S(=O)(=O)Nc3cccc(Cl)c3)c(Cl)cc2NC1=O (stereo not shown) [BC19715]
21 | 1 to 25 | CC1Oc2c(cc(Cl)cc2S(=O)(=O)Nc2cccc(Cl)c2)NC1=O (stereo not shown) [BC19716]
22 | ≥ 25 | Cc1ccc(NS(=O)(=O)c2cc3c(cc2Cl)NC(=O)C(C)O3)cc1 (stereo not shown) [BC19717]
23 | ≥ 25 | Cc1ccc(NS(=O)(=O)c2cc(Cl)cc3c2OC(C)C(=O)N3)cc1 (stereo not shown) [BC19718]
24 | 1 to 25 | CC1Oc2cc(S(=O)(=O)Nc3ccc(F)cc3Cl)c(Cl)cc2NC1=O (stereo not shown) [BC19719]
25 | ≥ 25 | CC1Oc2c(cc(Cl)cc2S(=O)(=O)Nc2ccc(F)cc2Cl)NC1=O (stereo not shown) [BC19720]
26 | < 1 | CC1Oc2cc(S(=O)(=O)Nc3ccc(F)cc3)c(Cl)cc2NC1=O (stereo not shown) [BC19721]
27 | 1 to 25 | CC1Oc2c(cc(Cl)cc2S(=O)(=O)Nc2ccc(F)cc2)NC1=O (stereo not shown) [BC19722]
28 | < 1 | CC1Oc2cc(S(=O)(=O)Nc3ccc(C#N)cc3)c(Cl)cc2NC1=O (stereo not shown) [BC19729]
29 | 1 to 25 | CC1Oc2c(cc(Cl)cc2S(=O)(=O)Nc2ccc(C#N)cc2)NC1=O (stereo not shown) [BC19730]
30 | 1 to 25 | CCC1Oc2cc(S(=O)(=O)Nc3ccc(F)cc3)c(Cl)cc2NC1=O (stereo not shown) [BC19731]
31 | 1 to 25 | CCC1Oc2c(cc(Cl)cc2S(=O)(=O)Nc2ccc(F)cc2)NC1=O (stereo not shown) [BC19732]
32 | 1 to 25 | CCC1Oc2cc(S(=O)(=O)Nc3ccc(OC(F)(F)F)cc3)c(Cl)cc2NC1=O (stereo not shown) [BC19733]
33 | 1 to 25 | CCC1Oc2c(cc(Cl)cc2S(=O)(=O)Nc2ccc(OC(F)(F)F)cc2)NC1=O (stereo not shown) [BC19734]
34 | ≥ 25 | CCC1Oc2cc(S(=O)(=O)Nc3ccc(F)c(F)c3)c(Cl)cc2NC1=O (stereo not shown) [BC19735]
35 | ≥ 25 | CCC1Oc2c(cc(Cl)cc2S(=O)(=O)Nc2ccc(F)c(F)c2)NC1=O (stereo not shown) [BC19736]
36 | 1 to 25 | CCC1Oc2cc(S(=O)(=O)Nc3ccccc3)c(Cl)cc2NC1=O (stereo not shown) [BC19737]
37 | < 1 | CCC1Oc2c(cc(Cl)cc2S(=O)(=O)Nc2ccccc2)NC1=O (stereo not shown) [BC19738]
